# System: HSP70
# Assay: RT-PCR for induction of heat shock protein gene transcription in BMDM
# Format: cell-based, mouse
# Procedure: A half million mouse BMDM isolated from BALB/c, IFNα receptor knockout, or IFNγ knockout mice were incubated with ISS-ODN or M-ODN at a final concentration of 10 μg/ml. After 0, 1, 2, 4, 6, and 8 hours, total RNA was prepared and analyzed by RT-PCR (reverse transcription-polymerase chain reaction) for induction of gene transcription of heat shock proteins. The sequences of the primers used is as follows: […]
substance,measurement,setting,value
5′-TGACTGTGAACGTTCGAGATGA-3′ [ISS-ODN],induction of HSP-70 gene transcription,BMDM from IFN type 1 receptor knockout mice,did not result in induction of HSP-70
same,induction of inducible HSP-70 gene transcription,"BMDM, 10 μg/ml, 0-8 hours",induces inducible HSP-70

# Reference: patent publication US6893821B2, “Agents that modulate DNA-PK activity and methods of use thereof” (The Regents of the University of California, priority 2000, dated 2005)
